The assay concerns Rhizoctonia solani. The experiment in a line: Fungicidal activity against Rhizoctonia solani infected Oryza sativa var. Nipponbare assessed per 10 […] applied by submerged-treatment 7 days prior to infection measured after 5 days. Format: functional.

Take `C[Si](C)(C)CC(O)(Cn1cncn1)c1ccc(Cl)cc1F` (stereo unspecified): the MED was 50 g.

In turn, `C[Si](C)(C)CC(O)(Cn1cncn1)c1cccc(F)c1` (stereo unspecified) gave an MED of 50 g.

As for `C=CC(C(O)(Cn1cncn1)c1ccc(F)cc1)[Si](C)(C)C` (stereo unspecified), the MED worked out at 100 g.

For `C[Si](C)(C)CC(O)(Cn1cnnc1)c1ccc(F)cc1` (stereo unspecified), the MED is reported as above 100 g.

For the compound `C[Si](C)(C)CC(O)(Cn1cncn1)c1ccccc1F` (stereo unspecified), the MED was determined as 100 g.

`C[Si](C)(C)CCC(O)(Cn1cncn1)c1ccc(F)cc1` (stereo unspecified) came in with an MED above 100 g.

As to `Cc1ccc(C(O)(Cn2cncn2)C[Si](C)(C)C)cc1` (stereo unspecified), the MED is on record as above 100 g.

As for `CC(C)Oc1cccc(NC(=O)c2ccccc2C(F)(F)F)c1` [FLUTOLANIL], the MED is listed as above 100 g.

Compound `C=CC(C(O)(Cn1cncn1)c1ccc(Cl)cc1)[Si](C)(C)C` (stereo unspecified) displayed an MED above 100 g.

Compound `CC(n1cncn1)C(O)(C[Si](C)(C)C)c1ccc(F)cc1` (stereo unspecified) came in with an MED of 50 g.

`C[Si](C)(C)CC(O)(Cn1ccnc1)c1ccc(F)cc1` (stereo unspecified) came in with an MED above 100 g.

Consider `C[Si](C)(C)C#CC(O)(Cn1cncn1)c1ccc(Cl)cc1Cl` (stereo unspecified), for which the MED is above 100 g.

Turning to `C[Si](C)(C)CC(O)(Cn1nccn1)c1ccc(F)cc1` (stereo unspecified), the MED is above 100 g.

With `C[Si](C)(C)CC(O)(Cn1cncn1)c1ccc(F)cc1` (stereo unspecified) [SIMECONAZOLE], the MED is given as 12.5 g.

The compound `COc1ccc(C(O)(Cn2cncn2)C[Si](C)(C)C)cc1` (stereo unspecified) displayed an MED above 100 g.

`CCC(n1cncn1)C(O)(C[Si](C)(C)C)c1ccc(F)cc1` (stereo unspecified) showed an MED above 100 g.

In turn, `C[Si](C)(C)CC(O)(Cn1cncn1)c1ccc(Cl)cc1` (stereo unspecified) displayed an MED of 25 g.

Regarding `CCCCC(O)(Cn1cncn1)c1ccc(Cl)cc1Cl` (stereo unspecified) [HEXACONAZOLE], the MED is recorded as 50 g.

With `C[Si](C)(C)CC(O)(Cn1cncn1)c1ccc(C(F)(F)F)cc1` (stereo unspecified), the MED stood at 100 g.

Compound `CC(C)(n1cncn1)C(O)(C[Si](C)(C)C)c1ccc(F)cc1` (stereo unspecified) showed an MED above 100 g.

In the case of `C[Si](C)(C)CC(O)(Cn1cncn1)c1ccc(Br)cc1` (stereo unspecified), the MED is above 100 g.

Take `CCC(C(O)(Cn1cncn1)c1ccc(F)cc1)[Si](C)(C)C` (stereo unspecified): the MED is 50 g.

With `C[Si](C)(C)CC(O)(Cn1cncn1)c1ccc(Cl)cc1Cl` (stereo unspecified), the MED is given as 100 g.

Take `C[Si](C)(C)CC(O)(Cn1cncn1)c1ccccc1` (stereo unspecified): the MED is given as 50 g.

Take `C[Si](C)(C)CC(O)(Cn1ccnn1)c1ccc(F)cc1` (stereo unspecified): the MED was above 100 g.

Take `C[Si](C)(C)CC(O)(Cn1cncn1)c1ccc(F)cc1F` (stereo unspecified): the MED worked out at 100 g.

Values taken from ChEMBL document CHEMBL3045541, “Synthesis and systemic fungicidal activity of silicon-containing azole derivatives” (2000).
